Values of other authors, collected in publication PMC6843717 (ACS Omega, 2019).

Details: cited from earlier work; for bioavailability: FDA-approved small molecules for advanced breast cancer

SMILES | bioavailability [%] | T1/2 (Rac inhibitor, plasma) [h]
CO[C@H]1C[C@@H]2CC[C@@H](C)[C@@](O)(O2)C(=O)C(=O)N2CCCC[C@H]2C(=O)O[C@H]([C@H](C)C[C@@H]2CC[C@@H](OCCO)[C@H](OC)C2)CC(=O)[C@H](C)/C=C(\C)[C@@H](O)[C@@H](OC)C(=O)[C@H](C)C[C@H](C)/C=C/C=C/C=C/1C [everolimus] | ~5 | –
CC(=O)O[C@H]1C(=O)[C@@]2(C)[C@H]([C@H](OC(=O)c3ccccc3)[C@]3(O)C[C@H](OC(=O)[C@H](O)[C@@H](NC(=O)c4ccccc4)c4ccccc4)C(C)=C1C3(C)C)[C@]1(OC(C)=O)CO[C@@H]1C[C@@H]2O [paclitaxel] | ~11 | –
O=c1cc(CN2CCOCC2)occ1OCCCCCSc1ccnc2cc(C(F)(F)F)ccc12 [EHT1864] | – | 1.65
